For one data set, the system named is LDL-C. As to conditions: cited from earlier work.
A further data set concerns HDL-C. The settings on record: cited from earlier work.
For data set [1] the following is noted: cited from earlier work; for Phase III clinical trial outcome (in words): anacetrapib: 30.000 patient REVEAL trial.
Data set [2] relates to low-density lipoprotein cholesterol (LDL-C). The data set can be described thus: Phase 2 study of obicetrapib and ezetimibe in mild dyslipidaemia: LDL-C by Friedewald formula. Type of data set: in vivo, human. The source says:
(§1) Study drugs will be administered by the participant orally and once daily on Days 1 through 57. Study drugs should be administered at approximately the same time each morning, with food. On days with visits scheduled, study drugs should be administered with food following all fasted blood samples. If a participant forgets to take study drug on a given day, they should take the next dose as normal and should not take a double dose to make up for the forgotten dose.
(§2) Up to 2 weeks after the Screening Visit, participants will return to the site on Day 1 (Visit 2) to be randomized and begin treatment. Approximately 100 eligible participants (25 participants per treatment group) will be randomized in a 1:1:1:1 ratio to 1 of the following treatment groups: • Combination therapy: 5 mg obicetrapib+10 mg ezetimibe; • Obicetrapib monotherapy: 5 mg obicetrapib+placebo ezetimibe; • Ezetimibe monotherapy: placebo obicetrapib+10 mg ezetimibe; or • Placebo: placebo obicetrapib+placebo ezetimibe.
LDL-C level was collected using the following 2 approaches: • 1. At each scheduled visit, LDL-C level was calculated using the Friedewald formula; and • 2. In addition, at baseline (Day 1) and at the end of the 8-week Treatment Period (Day 57), LDL-C was measured for all participants by preparative ultracentrifugation (PUC). Primary Efficacy Endpoint Primary analysis
The primary efficacy analysis of the percent change from Day 1 to Day 57 in LDL-C was performed using a mixed model for repeated measures (MMRM) approach. The analysis included fixed effects for treatment, visit, and treatment-by-visit interaction, along with a covariate of the baseline value as a continuous covariate. Randomization was stratified by categories of LDL-C value (<3.5 mmol/L [<135 mg/dL] or >3.5 mmol/L [≥135 mg/dL]) only to ensure similar distribution of LDL-C across all treatment groups; however, the MMRM model included the original scale of the LDL-C value as a continuous covariate. The Restricted Maximum Likelihood estimation approach was used with an unstructured covariance matrix. The least squares (LS) means, standard errors, and 2-sided 95% confidence intervals (CIs) for each treatment group, for the pairwise comparisons of the combination therapy, obicetrapib monotherapy, and ezetimibe monotherapy to placebo, and for the pairwise comparisons of combination therapy and obicetrapib monotherapy versus ezetimibe monotherapy are provided. The treatment comparison was performed using a 2-sided test at the α=0.05 level of significance.
Similar MMRM models were used for the exploratory efficacy endpoints. The proportion of participants at Day 57 that achieved LDL-C<2.6 mmol/L (<100 mg/dL), LDL-C<1.8 mmol/L (<70 mg/dL), and LDL-C<1.3 mmol/L (<50 mg/dL) were examined through Logistic Regression Models for binary variables with covariates of the treatment groups and the baseline variable.
This study was a placebo-controlled, double-blind, randomized Phase 2 study in participants with mild dyslipidemia to evaluate the efficacy, safety, and tolerability of obicetrapib and ezetimibe combination therapy. The primary efficacy endpoint was percent change from Day 1 to Day 57 in LDL-C for the obicetrapib 5 mg+ezetimibe 10 mg group compared to the placebo group.

For a further data set, the system named is apolipoprotein B (ApoB). Put plainly: Phase 2 study of obicetrapib and ezetimibe in mild dyslipidaemia: ApoB. The data set is classed as in vivo, human. The settings on record: mITT population, oral once daily.
Excerpt: as §1, §2
Similar MMRM models were developed to examine the percent change from Day 1 to Day 57 in LDL-C (for other pairwise treatment group comparisons beside the analysis specified for the primary efficacy endpoint, using the Friedewald formula) or ApoB. In order to maintain the overall Type 1 error rate, the secondary efficacy endpoints were tested sequentially at the 0.05 significance level according to the pre-specified order of hierarchy. This applied to the following analyses: • Percent change from Day 1 to Day 57 in LDL-C for the obicetrapib monotherapy group compared to the placebo group; • Percent change from Day 1 to Day 57 in ApoB for the combination therapy group compared to the placebo group; • Percent change from Day 1 to Day 57 in ApoB for the obicetrapib monotherapy group compared to the placebo group; • Percent change from Day 1 to Day 57 in LDL-C for combination therapy group compared to the ezetimibe monotherapy group; • Percent change from Day 1 to Day 57 in LDL-C for the obicetrapib monotherapy group compared to the ezetimibe monotherapy group; • Percent change from Day 1 to Day 57 in LDL-C, for the ezetimibe monotherapy group compared to the placebo group; and • Percent change from Day 1 to Day 57 in ApoB for the combination therapy group compared to the ezetimibe monotherapy group.

Data set [3] is described as follows: Phase 2 study: safety and tolerability (adverse events). Type of data set: in vivo, human. The source says: The Safety Population included all participants who received at least 1 dose of any study drug. Treatment classification was based on the actual treatment received. The Safety Population was the primary population used for the safety analyses.
The Safety Population was the primary population for the safety analyses. All safety endpoints are summarized descriptively. No statistical inference was applied to the safety endpoints.
AEs were categorized by primary system organ class (SOC) and preferred term (PT) as coded using the Medical Dictionary for Regulatory Activities (version 23.0) category designations. Summaries of AEs, including the count and percentage of participants who experienced an AE, are provided.
An overview of treatment-emergent adverse events (TEAEs) is provided, including counts and percentages of participants (and event counts).
Listings are presented specifically for TEAEs, treatment-emergent serious adverse events (TESAEs), and TEAEs leading to discontinuation of study drug.

The mark [4] stands for this setting: mITT population, mild dyslipidaemia, oral once daily, Day 57.
Where [5] appears, read: mITT population, oral once daily, baseline to Day 57.
Setting [6] is: torcetrapib dosed at 60 mg, Phase III clinical trials.

The text below walks through data of patent publication US20240189311A1, “Combination Therapy of Obicetrapib and Ezetimibe for Use in Statin Intolerant Patients Suffering from Hyperlipidemia or Mixed Dyslipidaemia” (NEWAMSTERDAM PHARMA B.V., priority 2021, published 2024).

Like-named read-outs stand apart in the source and are kept apart here.

Turning to `CCC(CC)CC1(C(=O)Nc2ccccc2SC(=O)C(C)C)CCCCC1` [Dalcetrapib], the “Effects on LDL-C concentrations (in words)” value with LDL-C (dalcetrapib clinical trials) is “minimal effects”. Further, in the data set on HDL-C (dalcetrapib clinical trials), the “Increase of HDL-C” value is 30-40%.

Take `Cc1cc(C)c2c(c1)[C@@H](N(Cc1cc(C(F)(F)F)cc(C(F)(F)F)c1)c1nnn(C)n1)CCCN2C[C@H]1CC[C@H](C(=O)O)CC1` [Evacetrapib]: the “Phase III clinical trial outcome (in words)” value in data set [1] is listed as “failed to pass a futility interim analysis”.

Regarding `O=C1[C@H](CC[C@H](O)c2ccc(F)cc2)[C@@H](c2ccc(O)cc2)N1c1ccc(F)cc1` [Ezetimibe 10 mg, (3R,4S)-1-(4-fluorophenyl)-3-[(3 S)-3-(4-fluorophenyl)-3-hydroxypropyl]-4-(4-hydroxyphenyl)azetidin-2-one], in data set [2] (Day 57), the “Number of participants that achieved LDL-C<70 mg/dL by Friedewald formula” value was 1 participants, the “Number of participants that achieved LDL-C<100 mg/dL by Friedewald formula” value is on record as 8 participants, the “Percentage of participants that achieved LDL-C<70 mg/dL by Friedewald formula” value is listed as 3.6% and the “Percentage of participants that achieved LDL-C<100 mg/dL by Friedewald formula” value is given as 28.6%. For the same compound, in data set [2] (setting [4]), the “LDL-C by Friedewald formula at Day 57, mean” value turned out to be 109.1 mg/dL and the “LDL-C by Friedewald formula at Day 57, median” value was determined as 109.0 mg/dL. For the same compound, in data set [2] (setting [5]), the “Change from baseline to Day 57 in LDL-C by Friedewald formula, mean” value is -18.0 mg/dL; the “Change from baseline to Day 57 in LDL-C by Friedewald formula, median” value was -19.0 mg/dL; the “Percent change from baseline to Day 57 in LDL-C by Friedewald formula, mean” value is given as −12.69%; the “Percent change from baseline to Day 57 in LDL-C by Friedewald formula, median” value is listed as −14.80%. Also, in the data set on apolipoprotein B (ApoB) (mild dyslipidaemia, Day 57), the “ApoB at Day 57, mean” value came out at 94.8 mg/dL and the “ApoB at Day 57, median” value was 94.0 mg/dL. Moreover, in the data set with apolipoprotein B (ApoB) (baseline to Day 57), the “Change from baseline to Day 57 in ApoB, mean” value was -9.5 mg/dL; the “Change from baseline to Day 57 in ApoB, median” value is -8.0 mg/dL; the “Percent change from baseline to Day 57 in ApoB, mean” value is −8.78%; the “Percent change from baseline to Day 57 in ApoB, median” value is −8.90%. Moreover, in data set [3] (Safety Population), the “Participants who experienced at least 1 TEAE, number” value is given as 8 participants; the “Participants who experienced at least 1 TEAE, percentage” value is recorded as 28.6%; the “Participants who experienced at least 1 study drug-related TEAE, number” value amounted to 3 participants; the “Participants who experienced at least 1 study drug-related TEAE, percentage” value is 10.7%. Moreover, in data set [3] (Safety Population), the “Participants with a TEAE with a maximum severity of moderate, number” value amounted to 4 participants; the “Participants with a TEAE with a maximum severity of moderate, percentage” value is reported as 14.3%; the “Participants with at least 1 TEAE that led to discontinuation of the study drug, number” value worked out at 1 participants; the “Participants with at least 1 TEAE that led to discontinuation of the study drug, percentage” value is recorded as 3.6%. Besides, the “Participants who experienced a TESAE / SAE, number” value in data set [3] (hyperventilation and multiple fractures, both rated not related to the study drug) is reported as “Two”. In addition, the “Participants who experienced a TESAE, percentage of participants overall” value in data set [3] (percentage of participants overall) is reported as 1.8%. The “Participants who experienced a severe TEAE, number” value in data set [3] (severe TEAE of multiple fractures) is recorded as “One”. Moreover, the “Participants who experienced a severe TEAE, percentage of all participants” value in data set [3] (severe TEAE of multiple fractures, percentage of all participants) is on record as 0.9%. In the data set with LDL-C (ezetimibe mono-therapy, patients with hypercholesterolemia), the “Reduction of LDL-C levels when compared to placebo” value was “less than 20%”.

`CCOC(=O)N1c2ccc(C(F)(F)F)cc2[C@@H](N(Cc2cc(C(F)(F)F)cc(C(F)(F)F)c2)C(=O)OC)C[C@H]1CC` [Torcetrapib]: in the data set with LDL-C (setting [6]), the “Decrease of LDL-C” value is 25%. The “Increase of HDL-C” value with HDL-C (setting [6]) is 72%. Further, the “Safety concerns in clinical development (in words)” value in data set [1] (torcetrapib, Phase III clinical trials) was “unexpected increase in cardiovascular events and death”.

With `COc1cc(F)c(C(C)C)cc1-c1ccc(C(F)(F)F)cc1CN1C(=O)O[C@H](c2cc(C(F)(F)F)cc(C(F)(F)F)c2)[C@@H]1C` [anacetrapib], in data set [1], the “Phase III clinical trial outcome (in words)” value is “reduced major cardiovascular events (MACE)”.
